Measurements published in article PMC9730482 (ACS Omega, 2022).

Target: α-glucosidase (Saccharomyces cerevisiae, UniProt P38158)
Assay: In vitro α-glucosidase inhibition assay
Assay type: biochemical, S. cerevisiae
Settings: for inhibition at 500 µM: read-out: percent inhibition (0.5 mM)

α-glucosidase, sequence (P38158 whole entry): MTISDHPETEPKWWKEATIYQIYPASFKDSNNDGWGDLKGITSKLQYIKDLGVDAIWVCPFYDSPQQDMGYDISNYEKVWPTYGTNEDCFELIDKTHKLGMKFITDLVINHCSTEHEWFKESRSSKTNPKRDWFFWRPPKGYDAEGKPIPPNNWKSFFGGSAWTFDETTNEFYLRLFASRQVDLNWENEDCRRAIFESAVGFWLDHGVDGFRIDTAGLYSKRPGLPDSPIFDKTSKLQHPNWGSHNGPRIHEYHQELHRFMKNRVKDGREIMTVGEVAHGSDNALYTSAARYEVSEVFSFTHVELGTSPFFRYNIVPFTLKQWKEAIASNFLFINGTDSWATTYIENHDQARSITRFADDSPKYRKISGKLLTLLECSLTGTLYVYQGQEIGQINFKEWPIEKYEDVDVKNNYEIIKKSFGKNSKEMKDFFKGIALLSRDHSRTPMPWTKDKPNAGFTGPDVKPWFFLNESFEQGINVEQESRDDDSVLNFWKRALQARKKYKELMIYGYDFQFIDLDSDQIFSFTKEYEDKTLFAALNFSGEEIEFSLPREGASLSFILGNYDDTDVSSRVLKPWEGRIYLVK

SMILES | IC50 [µM] | inhibition at 500 µM [%]
Sc1nc2cc(N=Cc3cccs3)ccc2[nH]1 [7k, 5-((Thiophen-2-ylmethylene)amino)-1H-benzo[d]imidazole-2-thiol] | 70.3 ± 1.52 | 87.6
Cc1ccc(C=Nc2ccc3[nH]c(S)nc3c2)cc1 [7m, 5-((4-Methylbenzylidene)amino)-1H-benzo[d]imidazole-2-thiol] | 11.1 ± 0.79 | 94
O=[N+]([O-])c1ccc(C=Nc2ccc3[nH]c(S)nc3c2)cc1 [7c, 5-((4-Nitrobenzylidene)amino)-1H-benzo[d]imidazole-2-thiol] | 9.84 ± 0.08 | 95.7
Oc1ccc(C=Nc2ccc3[nH]c(S)nc3c2)c(O)c1 [7i, 4-(((2-Mercapto-1H-benzo[d]imidazol-5-yl)Imino)methyl)benzene-1,3-diol] | 0.64 ± 0.05 | 95.4
CCN(CC)c1ccc(C=Nc2ccc3[nH]c(S)nc3c2)cc1 [7d, 5-((4-(Diethylamino)benzylidene)amino)-1H-benzo[d]imidazole-2-thiol] | 5.34 ± 0.16 | 96.6
C[C@H]1O[C@H](O[C@H]2[C@H](O)[C@@H](O)[C@@H](O[C@H]3[C@H](O)[C@@H](O)C(O)O[C@@H]3CO)O[C@@H]2CO)[C@H](O)[C@@H](O)[C@@H]1N[C@H]1C=C(CO)[C@@H](O)[C@H](O)[C@H]1O (stereo partly shown) [acarbose, reference compound] | – | 58.5
COc1ccc(C=Nc2ccc3[nH]c(S)nc3c2)c(OC)c1 [7f, 5-((2,4-Dimethoxybenzylidene)amino)-1H-benzo[d]imidazole-2-thiol] | 6.46 ± 0.3 | 95
COc1cc(C=Nc2ccc3[nH]c(S)nc3c2)cc(OC)c1OC [7j, 5-((3,4,5-Trimethoxybenzylidene)amino)-1H-benzo[d]imidazole-2-thiol] | 18.7 ± 0.74 | 94.7
COc1cccc(C=Nc2ccc3[nH]c(S)nc3c2)c1O [7e, 2-(((2-Mercapto-1H-benzo[d]imidazol-5-yl)imino)methyl)-6-methoxyphenol] | 16.4 ± 0.53 | 91.3
COc1ccccc1C=Nc1ccc2[nH]c(S)nc2c1 [7l, 5-((2-Methoxybenzylidene)amino)-1H-benzo[d]imidazole-2-thiol] | 343.1 ± 1.62 | 83.2
Sc1nc2cc(N=Cc3ccc(Cl)cc3)ccc2[nH]1 [7b, 5-((4-Chlorobenzylidene)amino)-1H-benzo[d]imidazole-2-thiol] | 27.3 ± 0.3 | 93.2
Oc1ccc(C=Nc2ccc3[nH]c(S)nc3c2)cc1 [7a, 4-(((2-Mercapto-1H-benzo[d]imidazol-5-yl)imino)methyl)phenol] | 11.8 ± 0.26 | 95.7
COc1ccc(C=Nc2ccc3[nH]c(S)nc3c2)cc1OC [7h, 5-((3,4-Dimethoxybenzylidene)amino)-1H-benzo[d]imidazole-2-thiol] | 20.7 ± 0.59 | 91.7
